The text below walks through data of US20150218212A1, “FLUORINATED EPOXYKETONE-BASED TETRAPEPTIDE COMPOUNDS AND USES THEREOF AS PROTEASOME INHIBITORS” (FLUORINOV PHARMA INC., priority 2012, published 2015).

For one series, the system named is SNB-19. In words: NCI screening panel, SNB-19 (CNS Cancer). The class given is cell-based, human. As to the method:
(§1) Representative compounds of Formula I were screened using the National Cancer Institute (NCI) screening panel, which consists of a panel of human tumor cell lines, representing leukemia, melanoma, and cancers of the lung, colon, ovary, breast, prostate and renal system.
(§2) After 24 h, two plates of each cell line are fixed in situ with TCA, to represent a measurement of the cell population for each cell line at the time of drug addition (Tz). Experimental drugs are solubilised in dimethyl sulfoxide at 400-fold the desired final maximum test concentration and stored frozen prior to use. At the time of drug addition, an aliquot of frozen concentrate is thawed and diluted to twice the desired final maximum test concentration with complete medium containing 50 μg/mL gentamicin. Additional four, 10-fold or ½ log serial dilutions are made to provide a total of five drug concentrations plus control. Aliquots of 100 μl of these different drug dilutions are added to the appropriate microtiter wells already containing 100 μl of medium, resulting in the required final drug concentrations.
(§3) Following drug addition, the plates are incubated for an additional 48 h at 37° C., 5% CO2, 95% air, and 100% relative humidity. For adherent cells, the assay is terminated by the addition of cold TCA (trichloroacetic acid). Cells are fixed in situ by the gentle addition of 50 μl of cold 50% (w/v) TCA (final concentration, 10% TCA) and incubated for 60 minutes at 4° C. The supernatant is discarded, and the plates are washed five times with tap water and air dried. Sulforhodamine B (SRB) solution (100 μl) at 0.4% (w/v) in 1% acetic acid is added to each well, and plates are incubated for 10 minutes at room temperature. After staining, unbound dye is removed by washing five times with 1% acetic acid and the plates are air dried. Bound stain is subsequently solubilised with 10 mM trizma base, and the absorbance is read on an automated plate reader at a wavelength of 515 nm. For suspension cells, the methodology is the same except that the assay is terminated by fixing settled cells at the bottom of the wells by gently adding 50 μl of 80% TCA (final concentration, 16% TCA). Using the seven absorbance measurements [time zero, (Tz), control growth, (C), and test growth in the presence of drug at the five concentration levels (Ti)], the percentage growth is calculated at each of the drug concentrations levels. Percentage growth inhibition is calculated as: [(Ti−Tz)/(C−Tz)]×100 for concentrations for which Ti>/=Tz and [(Ti−Tz)/Tz]×100 for concentrations for which Ti<Tz.
(§4) Three dose response parameters are calculated for each experimental agent. Growth inhibition of 50% (GI50) is calculated from [(Ti−Tz)/(C−Tz)]×100=50, which is the drug concentration resulting in a 50% reduction in the net protein increase (as measured by SRB staining) in control cells during the drug incubation. The drug concentration resulting in total growth inhibition (TGI) is calculated from Ti=Tz. The LC50 (concentration of drug resulting in a 50% reduction in the measured protein at the end of the drug treatment as compared to that at the beginning) indicating a net loss of cells following treatment is calculated from [(Ti−Tz)/Tz]×100=−50. Values are calculated for each of these three parameters if the level of activity is reached. However, if the effect is not reached or is exceeded, the value for that parameter is expressed as greater or less than the maximum or minimum concentration tested.

For another series, the system named is DU-145. In words: NCI screening panel, DU-145 (Prostate Cancer). It is filed as cell-based, human. As for the experimental part: as §1, §2, §3, §4
A further series concerns HOP-92. Kind of series: NCI screening panel, HOP-92 (Non-Small Cell Lung Cancer). It is filed as cell-based, human. As for the experimental part:
as §1, §2, §3, §4

Another series relates to PC-3. In words: NCI screening panel, PC-3 (Prostate Cancer). It is filed as cell-based, human. As for the experimental part:
as §1, §2, §3, §4

The subject of a further series is NCI-H522. Kind of series: NCI screening panel, NCI-H522 (Non-Small Cell Lung Cancer). It is filed as cell-based, human. As for the experimental part:
as §1, §2, §3, §4

The subject of another series is MM.1S tumor cells. In words: Inhibition of tumor growth in myeloma MM.1S mouse xenograft model. It is filed as in vivo. Conditions: MM.1S xenograft mice. As for the experimental part: The mice were irradiated (200 rads) using a Co60 irradiator source. After 24 hrs, each mouse was inoculated subcutaneously with 5×10^6 MM.1S tumor cells in 0.1 mL PBS for tumor development. Treatments were started when the tumor volume reached 100 mm^3. Each treatment group consisted of 10 mice. The test articles of compounds of Formula I were administrated to the tumor-bearing mice according to a specific predetermined regimen.

Consider `CC(C)C[C@H](NC(=O)[C@H](COC(F)F)NC(=O)CN1CCOCC1)C(=O)N[C@@H](COC(F)F)C(=O)N[C@@H](CC(C)C)C(=O)[C@@]1(C)CO1` [Example 1, (2S)—N-[(1S)-1-(difluoromethoxymethyl)-2-[[(1S)-3-methyl-1-[(2R)-2-methyloxirane-2-carbonyl]butyl]amino]-2-oxo-ethyl]-2-[[(2S)-3-(difluoromethoxy)-2-[(2-morpholinoacetyl)amino]propanoyl]amino]-4-methyl-pentanamide], for which the Log10GI50 with SNB-19 was −7.22; in the series on DU-145, −7.25; with HOP-92, −7.74; with PC-3, −7.49; in the series with NCI-H522, −7.96. The Log10LC50 with SNB-19 was greater than −4.00; in the series with DU-145, greater than −4.00; in the series with HOP-92, −6.50; in the series with NCI-H522, −4.04. Moreover, the Log10TGI50 in the series with SNB-19 is recorded as greater than −4.00; in the series on DU-145, −4.66; with HOP-92 it was −7.30; with PC-3, −6.81; with NCI-H522 it was −7.05. Moreover, the “gross adverse effects including reductions in body weight or alterations in behaviour” value in the series on MM.1S tumor cells (4 mg/kg i.v, days 1, 3, 5/wk×28 days) is recorded as “no gross adverse effects”; with MM.1S tumor cells (8 mg/kg i.v, days 1, 2/wk×4 wks) it was “no gross adverse effects”.
